Experimental data published in patent US20080118980A1, “Estrogen Enhancing Differentiation of Human Mesenchymal Stromal Cells and Adipose-derived Stromal Cells” (The Board of Trustees of the University of Illinois,, priority 2006, published 2008).

Legend:
human bone marrow MSCs = test: Osteogenic differentiation of human bone marrow MSCs modulated by E2 (Example 1); format: cell-based
Text: (§1) Human bone marrow MSCs were provided by the Center for Gene Therapy of Tulane University. The MSCs were isolated from bone marrow cells donated by a healthy adult volunteer. The passage-1 cells were recovered and expanded by culture in a basic medium composed of DMEM, 10% FBS and 1% antibiotic-antimycotic. Human ASCs were isolated from a healthy person with a lipo-aspirated surgery. The abdomen subcutaneous adipose tissue was finely minced and then digested with 0.075 wt % collagenase type I at 37° C. for 45 min. The cells were then collected by filtration with a cell strainer with pore size of 100 μm diameter. The ASCs were expanded in basic DMEM medium. Upon reaching 80-90% confluence of human MSCs and ASCs, the cells were trypsinized, counted, and subcultured at a density of 10^5 cells/100 mm dish. The cells used for study were passage-2. For osteogenic differentiation, the cells were seeded at a cell density of 10^4 cells/cm2 on 12-well plates and 100-mm petri dishes. Upon reaching 70% confluence, counting as day-0, the cells were exposed to osteogenic differentiation medium supplemented with either 10 nM or 10 pM E2. The osteogenic differentiation medium consisted of basic medium supplemented with 100 nM dexamethasone, 10 mM β-glycerophosphate, and 0.05 mM ascorbic acid-2-phosphate. At the defined time, the cells were collected and analyzed for osteogenic gene expression and differentiation potentials.
(§2) The cultured cells in 12-well plates were washed twice with PBS, suspended and lysed in 1% Triton-X100 solution. The collected cells were subsequently homogenized using sonication. The DNA content was determined by a fluorometric assay (Bio-Rad). ALP and calcium content were measured by spectrophotometry with a calorimetric kit according to the manufacturers' instructions (Sigma).
(§3) RNA was extracted from differentiated cells using TRizol reagent (Invitrogen). 5 μg of total RNA was converted to single stranded cDNA using a commercial cDNA synthesis kit. Aliquots of the cDNA were amplified with Ampli-Taq DNA polymerase for ALP, osteocalcin (OCN), core binding factor alpha1 (cbfa1), peroxisome proliferator activated receptors gamma (PPARγ)-2, estrogen receptors (ER) alpha (α) and beta (β), and housekeeping gene GAPDH. 40 cycles were used, each consisting of 45 sec of denaturation at 95° C., 45 sec of annealing at 58° C., and 1 min of polymerization at 72° C.

human ASCs = test: Osteogenic differentiation of human ASCs modulated by E2 (Example 1); format: cell-based
Text: as §1, §2, §3

[1] = day 7, vs differentiation without estrogen supplement
[2] = osteogenic differentiation medium supplemented with E2 (10 nM or 10 pM)

## C[C@]12CC[C@@H]3c4ccc(O)cc4CC[C@H]3[C@@H]1CC[C@@H]2O [E2, 17-β estradiol]
Human bone marrow MSCs; FIG. 2C
  calcium content: significantly increased
Human bone marrow MSCs; after 14 days, FIG. 2B
  ALP activities: little statistical significance
Human bone marrow MSCs; day 7, E2 10 nM
  OCN expression (RT-PCR): only densely expressed
Human bone marrow MSCs; [1]
  cbfa-1 expression (RT-PCR band): denser band
Human bone marrow MSCs; day 7, vs standard osteogenic medium
  PPAR-γ2 expression (RT-PCR): inhibited
Human bone marrow MSCs; higher dose of E2, FIG. 2A
  cell proliferation (amount of DNA) during osteogenesis: does not affect
Human bone marrow MSCs; [2]
  ALP and von Kossa staining: denser color
Human ASCs; FIG. 2F
  calcium content: significantly increased
Human ASCs; after 14 days, FIG. 2E
  ALP activities: significantly improved
Human ASCs; day 7, E2 10 nM
  OCN expression (RT-PCR): only densely expressed
Human ASCs; [1]
  cbfa-1 expression (RT-PCR band): denser band
Human ASCs; higher dose of E2, FIG. 2D
  cell proliferation (amount of DNA) during osteogenesis: inhibits
Human ASCs; [2]
  ALP and von Kossa staining: denser color
